Test results taken from PubChem BioAssay (NCI).
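Test compounds were applied to cells in 96-well plates for 48 hours at 5 doses. GI50 is the concentration that inhibits growth by half. Definition used: TGI = concentration required for complete inhibition of growth.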

How the values were obtained:
Assay in all cases: growth of human tumour cells (NCI), 48 h
HT29 colon = test system: HT29 colon
OVCAR-3 ovarian = test system: OVCAR-3 ovarian
U251 CNS = test system: U251 CNS
SN12C renal = test system: SN12C renal
SF-539 CNS = test system: SF-539 CNS
SW-620 colon = test system: SW-620 colon
MDA-MB-231 breast = test system: MDA-MB-231 breast
HS 578T breast = test system: HS 578T breast
CAKI-1 renal = test system: CAKI-1 renal
TK-10 renal = test system: TK-10 renal
SF-295 CNS = test system: SF-295 CNS
HCC-2998 colon = test system: HCC-2998 colon
SK-MEL-2 melanoma = test system: SK-MEL-2 melanoma
MCF7 breast = test system: MCF7 breast
COLO 205 colon = test system: COLO 205 colon
MOLT-4 leukemia = test system: MOLT-4 leukemia
SK-MEL-5 melanoma = test system: SK-MEL-5 melanoma
OVCAR-8 ovarian = test system: OVCAR-8 ovarian
HCT-15 colon = test system: HCT-15 colon
LOX IMVI melanoma = test system: LOX IMVI melanoma
HOP-92 NSCLC = test system: HOP-92 NSCLC
NCI/ADR-RES ovarian = test system: NCI/ADR-RES ovarian
786-0 renal = test system: 786-0 renal
NCI-H23 lung = test system: NCI-H23 lung
SK-MEL-28 melanoma = test system: SK-MEL-28 melanoma
NCI-H226 lung = test system: NCI-H226 lung
KM12 colon = test system: KM12 colon
EKVX NSCLC = test system: EKVX NSCLC
UACC-257 melanoma = test system: UACC-257 melanoma
IGROV1 ovarian = test system: IGROV1 ovarian
NCI-H522 lung = test system: NCI-H522 lung
HCT-116 colon = test system: HCT-116 colon
SK-OV-3 ovarian = test system: SK-OV-3 ovarian
T-47D breast = test system: T-47D breast
HOP-62 NSCLC = test system: HOP-62 NSCLC
UO-31 renal = test system: UO-31 renal
BT-549 breast = test system: BT-549 breast
SNB-19 CNS = test system: SNB-19 CNS
RXF 393 renal = test system: RXF 393 renal
SNB-75 CNS = test system: SNB-75 CNS
PC-3 prostate = test system: PC-3 prostate
HL-60(TB) leukemia = test system: HL-60(TB) leukemia
A549 NSCLC = test system: A549 NSCLC
OVCAR-4 ovarian = test system: OVCAR-4 ovarian
OVCAR-5 ovarian = test system: OVCAR-5 ovarian
UACC-62 melanoma = test system: UACC-62 melanoma
SR leukemia = test system: SR leukemia
K-562 leukemia = test system: K-562 leukemia
NCI-H460 lung = test system: NCI-H460 lung
SF-268 CNS = test system: SF-268 CNS
RPMI-8226 leukemia = test system: RPMI-8226 leukemia
ACHN renal = test system: ACHN renal
CCRF-CEM leukemia = test system: CCRF-CEM leukemia
M14 melanoma = test system: M14 melanoma

COc1cc([C@@H]2c3cc4c(cc3[C@H](SC(=N)N)[C@H]3COC(=O)[C@H]23)OCO4)cc(OC)c1OC
GI50 (HT29 colon): 217 nM
GI50 (OVCAR-3 ovarian): 76.7 nM
TGI (OVCAR-3 ovarian): 350 nM
GI50 (U251 CNS): 311 nM
TGI (U251 CNS): > 100000 nM
GI50 (SN12C renal): 621 nM
TGI (SN12C renal): > 100000 nM
GI50 (SF-539 CNS): 144 nM
TGI (SF-539 CNS): > 100000 nM
GI50 (SW-620 colon): 265 nM
TGI (SW-620 colon): > 100000 nM
GI50 (MDA-MB-231 breast): 388 nM
TGI (MDA-MB-231 breast): > 100000 nM
GI50 (HS 578T breast): 264 nM
TGI (HS 578T breast): > 100000 nM
GI50 (CAKI-1 renal): 249 nM
TGI (CAKI-1 renal): 17300 nM
GI50 (TK-10 renal): 2480 nM
TGI (TK-10 renal): > 78900 nM
GI50 (SF-295 CNS): 36.9 nM
TGI (SF-295 CNS): 190 nM
GI50 (HCC-2998 colon): 338 nM
TGI (HCC-2998 colon): > 100000 nM
GI50 (SK-MEL-2 melanoma): 5780 nM
TGI (SK-MEL-2 melanoma): > 100000 nM
GI50 (MCF7 breast): 58.6 nM
TGI (MCF7 breast): > 100000 nM
GI50 (COLO 205 colon): 198 nM
TGI (COLO 205 colon): 422 nM
GI50 (MOLT-4 leukemia): 382 nM
TGI (MOLT-4 leukemia): > 100000 nM
GI50 (SK-MEL-5 melanoma): 201 nM
TGI (SK-MEL-5 melanoma): 649 nM
GI50 (OVCAR-8 ovarian): 348 nM
TGI (OVCAR-8 ovarian): > 100000 nM
GI50 (HCT-15 colon): 321 nM
TGI (HCT-15 colon): > 100000 nM
GI50 (LOX IMVI melanoma): 79.9 nM
TGI (LOX IMVI melanoma): > 100000 nM
GI50 (HOP-92 NSCLC): 37100 nM
TGI (HOP-92 NSCLC): > 100000 nM
GI50 (NCI/ADR-RES ovarian): 253 nM
TGI (NCI/ADR-RES ovarian): > 100000 nM
GI50 (786-0 renal): 435 nM
TGI (786-0 renal): > 100000 nM
GI50 (NCI-H23 lung): 299 nM
TGI (NCI-H23 lung): > 100000 nM
GI50 (SK-MEL-28 melanoma): 14400 nM
TGI (SK-MEL-28 melanoma): > 100000 nM
GI50 (NCI-H226 lung): 573 nM
TGI (NCI-H226 lung): > 100000 nM
GI50 (KM12 colon): 94.4 nM
TGI (KM12 colon): 409 nM
GI50 (EKVX NSCLC): 291 nM
TGI (EKVX NSCLC): > 100000 nM
GI50 (UACC-257 melanoma): 15100 nM
TGI (UACC-257 melanoma): > 100000 nM
GI50 (IGROV1 ovarian): 227 nM
TGI (IGROV1 ovarian): 4660 nM
GI50 (NCI-H522 lung): 125 nM
GI50 (HCT-116 colon): 197 nM
TGI (HCT-116 colon): > 100000 nM
GI50 (SK-OV-3 ovarian): 201 nM
TGI (SK-OV-3 ovarian): > 33000 nM
GI50 (T-47D breast): 66700 nM
TGI (T-47D breast): > 100000 nM
GI50 (HOP-62 NSCLC): 419 nM
TGI (HOP-62 NSCLC): > 100000 nM
GI50 (UO-31 renal): 2600 nM
TGI (UO-31 renal): > 71200 nM
GI50 (BT-549 breast): 2300 nM
GI50 (SNB-19 CNS): 449 nM
TGI (SNB-19 CNS): > 100000 nM
GI50 (RXF 393 renal): 2300 nM
TGI (RXF 393 renal): 35600 nM
GI50 (SNB-75 CNS): 477 nM
TGI (SNB-75 CNS): > 100000 nM
GI50 (PC-3 prostate): 381 nM
TGI (PC-3 prostate): > 100000 nM
GI50 (HL-60(TB) leukemia): 250 nM
TGI (HL-60(TB) leukemia): > 100000 nM
GI50 (A549 NSCLC): 305 nM
TGI (A549 NSCLC): > 100000 nM
GI50 (OVCAR-4 ovarian): 683 nM
TGI (OVCAR-4 ovarian): > 100000 nM
GI50 (OVCAR-5 ovarian): 638 nM
TGI (OVCAR-5 ovarian): > 100000 nM
GI50 (UACC-62 melanoma): 1640 nM
TGI (UACC-62 melanoma): > 100000 nM
GI50 (SR leukemia): 89.7 nM
TGI (SR leukemia): > 100000 nM
GI50 (K-562 leukemia): 140 nM
TGI (K-562 leukemia): > 100000 nM
GI50 (NCI-H460 lung): 294 nM
TGI (NCI-H460 lung): 56100 nM
GI50 (SF-268 CNS): 421 nM
TGI (SF-268 CNS): > 100000 nM
GI50 (RPMI-8226 leukemia): 409 nM
TGI (RPMI-8226 leukemia): 32000 nM
GI50 (ACHN renal): 410 nM
TGI (ACHN renal): > 84200 nM
GI50 (CCRF-CEM leukemia): 299 nM
TGI (CCRF-CEM leukemia): > 100000 nM
GI50 (M14 melanoma): 288 nM
TGI (M14 melanoma): > 100000 nM
